Our source for the logP values is the SangsterLogP compilation.

In the case of `CCCOC(=O)OC1OC2OC3(C)CCC4C(C)CCC(C1C)C24OO3` (centres undefined), the logP (in general, the decadic logarithm of the partition coefficient of the neutral form, usually between octanol and water) was 3.11. With `COCCOCCOC1OC2OC3(C)CCC4C(C)CCC(C1C)C24OO3` (centres undefined) the figure was 3.51; with `CC1CCC2C(C)C(OC(=O)C=Cc3ccccc3)OC3OC4(C)CCC1C32OO4` (centres undefined), 3.83; with `CC(C)CCOC1OC2OC3(C)CCC4C(C)CCC(C1C)C24OO3` (centres undefined), 4.07. The molecule `CO[C@@H]1O[C@@H]2O[C@@]3(C)CC[C@H]4[C@H](C)CC[C@@H]([C@H]1C)[C@@]24OO3` (relative stereo) came in with a logP of 2.86.

`CCCC(=O)OC1OC2OC3(C)CCC4C(C)CCC(C1C)C24OO3` (centres undefined): the logP was found to be 2.99.

Molecule `CCOC(=O)OC1OC2OC3(C)CCC4C(C)CCC(C1C)C24OO3` (centres undefined) had a logP of 2.37.

`CC(=O)OC1OC2OC3(C)CCC4C(C)CCC(C1C)C24OO3` (centres undefined) came in with a logP of 2.08. With `CCC(=O)OC1OC2OC3(C)CCC4C(C)CCC(C1C)C24OO3` (centres undefined) the figure was 2.33; with `CC(C)OC1OC2OC3(C)CCC4C(C)CCC(C1C)C24OO3` (centres undefined), 3.49; with `CC1CCC2C(C)C(OCc3ccccc3)OC3OC4(C)CCC1C32OO4` (centres undefined), 4.2. For the molecule `CCO[C@H]1O[C@@H]2O[C@@]3(C)CC[C@H]4[C@H](C)CC[C@@H]([C@H]1C)[C@@]24OO3`, the logP worked out at 3.29. With `CCCOC1OC2OC3(C)CCC4C(C)CCC(C1C)C24OO3` (centres undefined) the figure was 3.65.

For the molecule `CC1CCC2C(C)C(OC(=O)Oc3ccccc3)OC3OC4(C)CCC1C32OO4` (centres undefined), the logP was 3.38.
